Assay results as given in patent US8207174B2, “Aryloxypropanolamines, methods of preparation therof and use of aryloxypropanolamines as medicaments” (4SC AG, priority 2007, dated 2012).

Tests used:
[1] = test system: β3 over β1- and β2-adrenoceptors; assay: Overall selectivity A×B from radioligand binding (β1, β2, β3) and functional β3 assay; parameters: species or system human; conditions: A=Ki(β1)/Ki(β3); B=Ki(β2)/EC50(β3); overall = A multiplied by B
Procedure: Selectivity for β3 over the other two adrenoceptors was thus defined as:
A) selectivity factor for β3 over β1=Ki(β1)/Ki(β3);
B) selectivity factor for β3 over β2=Ki(β2)/EC50(β3);
overall selectivity was determined as factor A) multiplied by factor B)
Membrane preparations containing human β1-, β2- or β3-adrenergic receptors were purchased from Euroscreen.
Determination of IC50 deployed a competition binding experiment where an unlabeled test compound competes with the radioligand for the receptor's binding site.
For competition binding experiments 0.1 μg/μL β3 membranes were pre-incubated with the respective compounds at r.t. for 10 minutes. The binding buffer consisted of 25 mM Hepes, 1 mM EDTA, 0.5% BSA pH 7.4. All incubation steps were done in a 96 well Masterblock PP/1 mL (Greiner), the total assay volume was 100 μL.
The reaction mixtures were transferred to a 96 well UnifilterGF/B filter plate (Millipore), pre-soaked in 0.5% BSA, using the PerkinElmer filtermate. Each well was washed with 8×1 mL ice cold binding buffer supplemented with 0.5M NaCl. The GF/B filter plates were dried for 5 min on the filtermate. To each well, 50 μL OptiPhase scintillation cocktail (PerkinElmer) was added and incubated at r.t. for 10 min.
Bound radioactivity was quantified in a Wallac-Microbeta plate reader (PerkinElmer). Each well was counted for 2 min in top-count mode.
For competition binding experiments 0.25 μg/well β1 or 0.5 μg/well β2 membranes were pre-incubated with the respective compounds at r.t. for 10 minutes. […] All incubation steps were done in a 96 well Masterblock PP/1 mL (Greiner), the total assay volume was 250 μL.
The reaction mixtures were transferred to a 96 well UnifilterGF/B filter plate (Millipore), pre-soaked in 0.5% PEI, using the PerkinElmer filtermate, Each well was wash with 8×1 mL ice cold binding buffer. The GF/B filter plates were dried for 5 min on the filtermate. To each well 50 μL OptiPhase scintillation cocktail (PerkinElmer) was added and incubated at r.t. for 10 min.
Bound radioactivity was quantified in a Wallac-Microbeta plate reader (PerkinElmer). Each well was counted for 2 min in top-count mode

[2] = target: T1, human recombinant adrenergic β3 receptor (Homo sapiens, UniProt P13945); assay: Cyclic AMP accumulation assay (HTRF), agonist mode; type: cell-based; conditions: agonistic activity at β3-adrenoceptor, CHO-K1 β3 cells, cAMP
T1 construct: host or cells: CHO-K1
Procedure: (Cyclic Amp Accumulation Assay)
Functional response of cells (agonistic or antagonistic) to the test compounds was tested by measurement of cyclic AMP formation. Therefore cyclic AMP was quantitatively determined by HTRF® (Homogeneous Time-Resolved Fluorescence) technology (Cisbio International) using a stable cell line CHO-K1 β3 expressing the human recombinant adrenergic β3 receptor (Euroscreen).
The CHO-K1 β3 cell line was maintained in Ham's F12 medium containing 10% fetal bovine serum, 400 μg/ml geneticin (G418), 100 U/mL penicillin and 100 μg/mL streptomycin (all PAA) at 37° C. and 5% CO2. Cells in mid-log phase, grown in media without antibiotics during 18 h prior to the experiment, were detached by gentle flushing with 2 ml PBS-EDTA pH 7.5 (Cambrex) and resuspended in 8 mL of medium without antibiotics. Cells were then counted, centrifuged in a 30 mL PP tube (Corning) at 2000 rpm for 1 min and resuspended in HBSS/20 mM HEPES/0.05% BSA buffer (all PAA) including 1 mM IBMX (Sigma). Cells were then dispensed at 3.2×10^5−3.6×10^5 cells/well in black 96-half well microtiter plates (Corning). After addition of the test compounds for dose response curves the plates were incubated for 10 min at room temperature.
cAMP HTRF® Kit reagents were then added as recommended by the manufacturer and plates were sealed with plate sealer. After 1 hour of incubation the plates were read in a Tecan Ultra Reader using the “multilabeling” option of Tecan Xfluor4 software with the following parameters, excitation filter 320 nm, mirror dichroic2, lag time 150 μs, integration time 500 μs, number of flashes 10, optimal gain and z-position. For measurement 1 an emission filter at 620 nm and for measurement 2 an emission filter at 665 nm was chosen.
EC50 value calculation for the agonist assay and IC50 value calculation for the antagonist assay, respectively, were performed with the MS Excel Solver function based on a four-parameter fit.

T1 sequence (P13945 whole entry): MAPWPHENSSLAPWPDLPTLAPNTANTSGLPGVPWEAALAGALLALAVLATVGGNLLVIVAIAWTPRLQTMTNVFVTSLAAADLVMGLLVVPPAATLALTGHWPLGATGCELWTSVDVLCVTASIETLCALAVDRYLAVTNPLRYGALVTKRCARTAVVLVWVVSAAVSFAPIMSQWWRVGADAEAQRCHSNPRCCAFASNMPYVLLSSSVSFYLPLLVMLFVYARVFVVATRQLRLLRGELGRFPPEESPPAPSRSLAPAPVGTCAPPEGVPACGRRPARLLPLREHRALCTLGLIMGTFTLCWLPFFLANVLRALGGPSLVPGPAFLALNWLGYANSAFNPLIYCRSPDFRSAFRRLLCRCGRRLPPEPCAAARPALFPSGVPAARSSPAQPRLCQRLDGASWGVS

Structure (SMILES)	selectivity [A x B] [1]	EC50 [2] [nM]
Cc1nc(N2CCC(NCC(O)COc3ccc(O)cc3)CC2)c2ccsc2n1 (stereo not drawn) [Example 5, 4-(2-hydroxy-3-(1-(2-methylthieno[2,3-d]pyrimidin-4-yl)piperidin-4-ylamino)propoxy)phenol]	++ (A×B=101-1000)	11 to 100
Cc1cc(C)nc(N2CCC(NCC(O)COc3ccc(O)cc3)CC2)n1 (stereo not drawn) [Example 8, 4-(3-(1-(4,6-dimethylpyrimidin-2-yl)piperidin-4-ylamino)-2-hydroxypropoxy)phenol]	0 (A×B<10)	11 to 100
CN(CC(O)COc1ccc(O)cc1)C1CCN(c2ncnc3scc(-c4ccc(F)cc4)c23)CC1 (stereo not drawn) [Example 11, 4-(3-((1-(5-(4-fluorophenyl)thieno[2,3-d]pyrimidin-4-yl)piperidin-4-yl)(methyl)amino)-2-hydroxypropoxy)phenol]	0 (A×B<10)	> 100
OCc1cc(OCC(O)CNC2CCN(C3=NCNc4scc(-c5ccccc5)c43)CC2)ccc1O (stereo not drawn) [Example 14, 4-(2-hydroxy-3-(1-(5-phenyl-1,2-dihydrothieno[2,3-d]pyrimidin-4-yl)piperidin-4-ylamino)propoxy)-2-(hydroxymethyl)phenol]	+++ (A×B>1000)	0.01 to 0.99
Cc1nc(N2CCC(NCC(O)COc3ccc(O)c(CO)c3)CC2)c2ccsc2n1 (stereo not drawn) [Example 19, 4-(2-hydroxy-3-(1-(2-methylthieno[2,3-d]pyrimidin-4-yl)piperidin-4-ylamino)propoxy)-2-(hydroxymethyl)phenol]	+++ (A×B>1000)	1 to 10
Cc1cc(C)nc(N2CCC(NCC(O)COc3ccc(O)c(CO)c3)CC2)n1 (stereo not drawn) [Example 24, 4-(3-(1-(4,6-dimethylpyrimidin-2-yl)piperidin-4-ylamino)-2-hydroxypropoxy)-2-(hydroxymethyl)phenol]	+++ (A×B>1000)	1 to 10
COC(=O)c1ccc(OCC(O)CNC2CCN(c3ncnc4scc(-c5ccccc5)c34)CC2)cc1O (stereo not drawn) [Example 28, methyl 2-hydroxy-4-(2-hydroxy-3-(1-(5-phenylthieno[2,3-d]pyrimidin-4-yl)piperidin-4-ylamino)propoxy)benzoate]	0 (A×B<10)	> 100
COC(=O)c1ccc(O)cc1OCC(O)CNC1CCN(c2ncnc3scc(-c4ccccc4)c23)CC1 (stereo not drawn) [Example 34, methyl 4-hydroxy-2-(2-hydroxy-3-(1-(5-phenylthieno[2,3-d]pyrimidin-4-yl)piperidin-4-ylamino)propoxy)benzoate]	0 (A×B<10)	> 100
Cc1csc2ncnc(N3CCC(NCC(O)COc4cccc(CO)c4)CC3)c12 (stereo not drawn) [Example 37, 1-(3-(hydroxymethyl)phenoxy)-3-(1-(5-methylthieno[2,3-d]pyrimidin-4-yl)piperidin-4-ylamino)propan-2-ol]	0 (A×B<10)	11 to 100
Cc1nc(N2CCC(NCC(O)COc3cccc(CO)c3)CC2)c2ccsc2n1 (stereo not drawn) [Example 38, 1-(3-(hydroxymethyl)phenoxy)-3-(1-(2-methylthieno[2,3-d]pyrimidin-4-yl)piperidin-4-ylamino)propan-2-ol]	0 (A×B<10)	> 100
Cc1c(-c2ccccc2)sc2ncnc(N3CCC(NCC(O)COc4cccc(CO)c4)CC3)c12 (stereo not drawn) [Example 39, 1-(3-(hydroxymethyl)phenoxy)-3-(1-(5-methyl-6-phenylthieno[2,3-d]pyrimidin-4-yl)piperidin-4-ylamino)propan-2-ol]	0 (A×B<10)	> 100
OCc1cccc(OCC(O)CNC2CCN(c3ncnc4scc(-c5ccc(F)cc5)c34)CC2)c1 (stereo not drawn) [Example 40, 1-(1-(5-(4-fluorophenyl)thieno[2,3-d]pyrimidin-4-yl)piperidin-4-ylamino)-3-(3-(hydroxymethyl)phenoxy)propan-2-ol]	+ (A×B=10-100)	11 to 100
CN(CC(O)COc1cccc(CO)c1)C1CCN(c2ncnc3scc(-c4ccccc4)c23)CC1 (stereo not drawn) [Example 41, 1-(3-(hydroxymethyl)phenoxy)-3-(methyl(1-(5-phenylthieno[2,3-d]pyrimidin-4-yl)piperidin-4-yl)amino)propan-2-ol]	+ (A×B=10-100)	> 100
Cc1c(-c2ccccc2)sc2ncnc(N3CCC(N(C)CC(O)COc4cccc(CO)c4)CC3)c12 (stereo not drawn) [Example 42, 1-(3-(hydroxymethyl)phenoxy)-3-(methyl(1-(5-methyl-6-phenylthieno[2,3-d]pyrimidin-4-yl)piperidin-4-yl)amino)propan-2-ol]	0 (A×B<10)	> 100
OCc1ccc(OCC(O)CNC2CCN(c3ncnc4scc(-c5ccc(F)cc5)c34)CC2)cc1 (stereo not drawn) [Example 44, 1-(1-(5-(4-fluorophenyl)thieno[2,3-d]pyrimidin-4-yl)piperidin-4-ylamino)-3-(4-(hydroxymethyl)phenoxy)propan-2-ol]	+ (A×B=10-100)	> 100

Next, values leading:

selectivity [A x B] [1]	EC50 [2] [nM]	Structure (SMILES)
0 (A×B<10)	> 100	CCOC(=O)c1cc(OCC(O)CNC2CCN(c3ncnc4scc(-c5ccccc5)c34)CC2)ccc1O (stereo not drawn) [Example 12]
0 (A×B<10)	> 100	CCOC(=O)c1cc(OCC(O)CNC2CCN(c3ncnc4scc(C)c34)CC2)ccc1O (stereo not drawn) [Example 17, ethyl 2-hydroxy-5-(2-hydroxy-3-(1-(5-methylthieno[2,3-d]pyrimidin-4-yl)piperidin-4-ylamino)propoxy)benzoate]
0 (A×B<10)	> 100	CCOC(=O)c1cc(OCC(O)CNC2CCN(c3ncnc4sc(-c5ccccc5)c(C)c34)CC2)ccc1O (stereo not drawn) [Example 20, ethyl 2-hydroxy-5-(2-hydroxy-3-(1-(5-methyl-6-phenylthieno[2,3-d]pyrimidin-4-yl)piperidin-4-ylamino)propoxy)benzoate]
0 (A×B<10)	> 100	CCOC(=O)c1cc(OCC(O)CNC2CCN(c3ncnc4ccsc34)CC2)ccc1O (stereo not drawn) [Example 22, ethyl 2-hydroxy-5-(2-hydroxy-3-(1-(thieno[3,2-d]pyrimidin-4-yl)piperidin-4-ylamino)propoxy)benzoate]
0 (A×B<10)	> 100	CCOC(=O)c1cc(OCC(O)CNC2CCN(c3ncnc4scc(-c5cccs5)c34)CC2)ccc1O (stereo not drawn) [Example 25, ethyl 2-hydroxy-5-(2-hydroxy-3-(1-(5-(thiophen-2-yl)thieno[2,3-d]pyrimidin-4-yl)piperidin-4-ylamino)propoxy)benzoate]
+ (A×B=10-100)	1 to 10	CCOC(=O)c1cc(O)ccc1OCC(O)CNC1CCN(c2ncnc3scc(-c4ccccc4)c23)CC1 (stereo not drawn) [Example 32, ethyl 5-hydroxy-2-(2-hydroxy-3-(1-(5-phenylthieno[2,3-d]pyrimidin-4-yl)piperidin-4-ylamino)propoxy)benzoate]
